This note sets out measurements from paper PMC6366416, “Synthesis and in vitro anticancer activity of certain novel 1-(2-methyl-6-arylpyridin-3-yl)-3-phenylureas as apoptosis-inducing agents” (Journal of Enzyme Inhibition and Medicinal Chemistry, 2019).

In one assay the test system is WI-38 cell line. In words: MTT cytotoxicity towards non-tumorigenic cells. Format: cell-based, human. The settings on record: for IC50: WI-38, MTT, non-tumorigenic human lung fibroblast, mean ± SD of three experiments; for S. I. WI-38/A549: selectivity index, IC50 WI-38 / IC50 A549. How it is done: The cytotoxic activity of all synthesized pyridines 5a–l were assessed against non-tumorigenic human lung fibroblast WI-38 cell line to investigate their safety, using the MTT colorimetric assay.

A further assay deals with A549 cell line. In words: MTT anti-proliferative assay. The settings on record: Homo sapiens, 48 h of incubation, mean ± SD of three experiments. Format: cell-based. Here is the method:
(§1) A549 (non-small cell lung cancer cell line) and HCT-116 (human colon cancer cell line), were obtained from American Type Culture Collection (Manassas, VA, USA). The cells were maintained in Dulbecco’s Modified Eagle’s Medium (DMEM) (Sigma-Aldrich, St. Louis, MO), and supplemented with 10% heat-inactivated FBS (Hyclone), 10 μg/mL of insulin (Manufacturer, Sigma, St. Louis, MO, USA), and 1% penicillin-streptomycin. MTT assay[29] was adopted to assess the in vitro antitumor activity of the newly synthesized pyridines 5a–l according to the reported procedures, using Doxorubicin as a standard treatment. Experimental conditions were tested using three replicates (three wells of the 96-well plate per experimental condition) and all experiments were carried out in triplicates. IC50 values were calculated by the use of the equation for Boltzman sigmoidal concentration–response curve using the nonlinear regression fitting models by Graph Pad, Prism version 5 (GraphPad Software Inc., La Jolla, CA).
(§2) All newly synthesized pyridines 5a–l were examined for their anti-proliferative activity towards two cancer cell lines: non-small cell lung cancer A549 cell line and colon cancer HCT-116 cell line. The MTT colorimetric assay was adopted to assess the anti-proliferative activity as described by Mosmann[29]. Doxorubicin was used as a control in this assay.
(Formazan colour is commonly taken as a measure of viable cells.)

The next assay deals with HCT-116 cell line. In words: MTT anti-proliferative assay. The format is cell-based. The settings on record: Homo sapiens, 48 h of incubation, mean ± SD of three experiments. Here is the method:
as §1, §2

Regarding `Cc1nc(-c2ccc(F)cc2)ccc1NC(=O)Nc1cccc(C(F)(F)F)c1` [Compound 5a, 1-(6-(4-Fluorophenyl)-2-methylpyridin-3-yl)-3-(3-(trifluoromethyl)phenyl)urea], the values for the 50% inhibitory concentration (IC50) with WI-38 cell line, in the assay with A549 cell line and in the assay on HCT-116 cell line were 93.5 ± 5.28 µM, 6.83 ± 0.42 µM and 5.49 ± 0.3 µM, respectively. Further, the “S. I. WI-38/A549” value in the assay with WI-38 cell line was 13.7.

For the molecule `CCOC(=O)c1ccc(NC(=O)Nc2ccc(-c3ccc(F)cc3)nc2C)cc1` [Compound 5c, Ethyl 4-(3-(6-(4-fluorophenyl)-2-methylpyridin-3-yl)ureido)benzoate], in the assay with WI-38 cell line, inhibition was half-maximal at 123 ± 10.2 µM (IC50) and the “S. I. WI-38/A549” value was found to be 12.8. Also, half-maximal inhibition in the assay with A549 cell line (IC50) required 9.61 ± 1.03 µM.

Regarding `Cc1nc(-c2ccc(F)cc2)ccc1NC(=O)Nc1ccc2c(c1)OCO2` [Compound 5d, 1-(Benzo[d][1, 3]dioxol-5-yl)-3-(6-(4-fluorophenyl)-2-methylpyridin-3-yl)urea], the IC50 (usually the concentration at which inhibition is half-maximal) in the assay with WI-38 cell line came out at 107 ± 7.03 µM; in the assay on A549 cell line it was 12.5 ± 0.85 µM; with HCT-116 cell line it was 10.4 ± 0.84 µM. In the assay with WI-38 cell line, the “S. I. WI-38/A549” value came out at 8.6.

Consider `Cc1nc(-c2ccc(Cl)cc2)ccc1NC(=O)Nc1cccc(C(F)(F)F)c1` [Compound 5e, 1-(6-(4-Chlorophenyl)-2-methylpyridin-3-yl)-3-(3-(trifluoromethyl)phenyl)urea], for which the results for the IC50 in the assay with WI-38 cell line, with A549 cell line and in the assay with HCT-116 cell line were 130 ± 9.22 µM, 11.9 ± 0.92 µM and 7.05 ± 0.72 µM, respectively. Also, the “S. I. WI-38/A549” value in the assay with WI-38 cell line is 11.0.

Regarding `COc1ccc(NC(=O)Nc2ccc(-c3ccc(Cl)cc3)nc2C)cc1` [Compound 5f, 1-(6-(4-Chlorophenyl)-2-methylpyridin-3-yl)-3-(4-methoxyphenyl) urea], the IC50 in the assay on WI-38 cell line was determined as 116 ± 9.61 µM; in the assay with A549 cell line it was 7.9 ± 0.54 µM; in the assay on HCT-116 cell line it was 12.6 ± 1.08 µM. For the same molecule, the “S. I. WI-38/A549” value with WI-38 cell line is listed as 14.7.

As for `Cc1nc(-c2ccc(Cl)cc2)ccc1NC(=O)Nc1ccc2c(c1)OCO2` [Compound 5g, 1-(Benzo[d][1,3]dioxol-5-yl)-3-(6-(4-chlorophenyl)-2-methylpyridin-3-yl)urea], in the assay with WI-38 cell line, inhibition was half-maximal at 63.5 ± 5.08 µM (IC50) and the “S. I. WI-38/A549” value is recorded as 9.4. In the assay on A549 cell line, this molecule registered an IC50 of 6.72 ± 0.38 µM.

In the case of `Cc1nc(-c2cccs2)ccc1NC(=O)Nc1ccc(F)cc1` [Compound 5h, 1-(4-Fluorophenyl)-3-(2-methyl-6-(thiophen-2-yl)pyridin-3-yl)urea], the IC50 with WI-38 cell line was found to be 143 ± 8.38 µM; in the assay on A549 cell line, 10.6 ± 0.86 µM; in the assay with HCT-116 cell line it was 8.25 ± 0.84 µM. Further, in the assay on WI-38 cell line, the “S. I. WI-38/A549” value amounted to 13.4.

On to `Cc1nc(-c2cccs2)ccc1NC(=O)Nc1ccc(Cl)cc1` [Compound 5i, 1-(4-Chlorophenyl)-3-(2-methyl-6-(thiophen-2-yl)pyridin-3-yl)urea], for which, in the assay on WI-38 cell line, inhibition was half-maximal at 129 ± 12 µM (IC50) and the “S. I. WI-38/A549” value was found to be 14.8. Also, in the assay with A549 cell line, the IC50 came to 8.73 ± 0.71 µM.

For the molecule `CCOC(=O)c1ccc(NC(=O)Nc2ccc(-c3cccs3)nc2C)cc1` [Compound 5j, Ethyl 4-(3-(2-methyl-6-(thiophen-2-yl)pyridin-3-yl)ureido)benzoate], the IC50 in the assay with WI-38 cell line is 107 ± 7.02 µM; in the assay with A549 cell line, 8.04 ± 0.59 µM; in the assay on HCT-116 cell line, 9.38 ± 0.67 µM. The “S. I. WI-38/A549” value in the assay on WI-38 cell line amounted to 13.3.
